These results are taken from PubChem BioAssay (NCI).

SMILES strings stand for the structures.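 Step 1: Grow cells in 96-well plates. Step 2: Expose to compound for 48 hours at 5 concentrations. Step 3: Interpolate endpoints linearly; if unreached, use highest concentration. Here, GI50 denotes the concentration required for 50% inhibition of growth. Definition used: TGI = concentration required for complete inhibition of growth.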

Test systems include NCI-H460 lung; A498 renal; OVCAR-5 ovarian; SF-539 CNS; DU-145 prostate; SR leukemia; MALME-3M melanoma; UACC-257 melanoma; HL-60(TB) leukemia.
Common to all, as to assay: NCI anticancer screen, dose series, 48 h

Take `CCC(C)C1NC(=O)c2nc(oc2-c2ccccc2)-c2csc(n2)-c2csc(n2)-c2nc(oc2C)-c2coc(n2)CNC(=O)C(C(C)CC)NC1=O` (stereo not drawn): the GI50 with NCI-H460 lung was 0.0102 µM; in the assay with A498 renal, 0.16 µM; in the assay with OVCAR-5 ovarian, 0.0515 µM; in the assay with SF-539 CNS, 0.111 µM; in the assay on DU-145 prostate it was 0.0218 µM; with SR leukemia, 0.0327 µM. Besides, the TGI with NCI-H460 lung came to 0.0268 µM; with A498 renal, 0.343 µM; in the assay with OVCAR-5 ovarian, 0.189 µM; with SF-539 CNS it was 0.239 µM; with DU-145 prostate, 0.0658 µM; with SR leukemia, 0.212 µM.

Turning to `O=C1/C(=C/c2ccc(F)cc2)CCOc2ccc([N+](=O)[O-])cc21`, the GI50 with MALME-3M melanoma was 2.27 µM; with NCI-H460 lung it was 17.4 µM; in the assay with UACC-257 melanoma, 2.62 µM; with A498 renal it was 17.4 µM; in the assay on OVCAR-5 ovarian, 2 µM; in the assay with SF-539 CNS it was 2.52 µM. Besides, the GI50 with DU-145 prostate was 5.68 µM; in the assay on SR leukemia it was 2.07 µM. Besides, the TGI in the assay with MALME-3M melanoma amounted to 5.79 µM; in the assay with NCI-H460 lung it was 34.9 µM; in the assay with UACC-257 melanoma it was 6.29 µM; with A498 renal, 35 µM; in the assay with OVCAR-5 ovarian it was 4.62 µM; with SF-539 CNS, 5.99 µM. The results for the TGI in the assay on DU-145 prostate and in the assay with SR leukemia were 18.1 µM and 6.35 µM, respectively.

As for `NC(N)=N/N=C(/c1ccccc1)c1ccc(F)cc1`, the GI50 in the assay on MALME-3M melanoma was 0.368 µM; in the assay on NCI-H460 lung it was 0.342 µM; with UACC-257 melanoma, 2.94 µM; with A498 renal, 0.299 µM; in the assay on OVCAR-5 ovarian, 1.03 µM; with HL-60(TB) leukemia it was 3.67 µM. Besides, the GI50 in the assay with SF-539 CNS is 0.271 µM; with DU-145 prostate it was 0.33 µM; with SR leukemia, 0.286 µM. Also, the TGI in the assay on MALME-3M melanoma turned out to be 22 µM; in the assay on NCI-H460 lung it was 10.8 µM; with UACC-257 melanoma, 32.8 µM; with A498 renal, 3.28 µM; in the assay on OVCAR-5 ovarian, 18.7 µM; in the assay with SF-539 CNS it was 0.902 µM. The TGI is 4.15 µM in the assay on DU-145 prostate and 6.11 µM in the assay with SR leukemia.

With `Nc1n[nH]c2ccc([C@@H]3Nc4ccc5[nH]ncc5c4[C@H]4[C@H]5CCC(C5)[C@H]43)cc12`, the GI50 is 0.461 µM with MALME-3M melanoma; 0.358 µM with NCI-H460 lung; 15.8 µM with UACC-257 melanoma; 0.168 µM in the assay on A498 renal; 0.572 µM in the assay with OVCAR-5 ovarian; 0.247 µM in the assay with HL-60(TB) leukemia. The GI50 was 0.238 µM in the assay on SF-539 CNS, 0.445 µM with DU-145 prostate and 0.28 µM with SR leukemia. Moreover, the TGI is > 47.5 µM in the assay with MALME-3M melanoma; 10.9 µM in the assay on NCI-H460 lung; > 100 µM with UACC-257 melanoma; 0.641 µM in the assay with A498 renal; 49.6 µM with OVCAR-5 ovarian; 0.654 µM with HL-60(TB) leukemia. The figures for the TGI with SF-539 CNS, in the assay with DU-145 prostate and with SR leukemia were 0.673 µM, > 28.3 µM and 20.2 µM, respectively.

For the compound `COc1ccc(C(=O)Nc2ncc(Cc3ccc(Cl)cc3)s2)cc1`, the GI50 was 0.087 µM in the assay with MALME-3M melanoma; 0.0406 µM in the assay with NCI-H460 lung; 20 µM in the assay on UACC-257 melanoma; 0.0216 µM in the assay with A498 renal; 0.247 µM in the assay on OVCAR-5 ovarian; 0.0347 µM with HL-60(TB) leukemia. Moreover, the results for the GI50 in the assay with SF-539 CNS, in the assay on DU-145 prostate and with SR leukemia were 0.047 µM, 0.104 µM and 0.0375 µM, respectively. In addition, the TGI in the assay with MALME-3M melanoma is > 100 µM; in the assay on NCI-H460 lung, > 100 µM; in the assay on UACC-257 melanoma, > 100 µM; in the assay on A498 renal it was 0.0848 µM; with OVCAR-5 ovarian it was > 100 µM; in the assay on SF-539 CNS, 0.516 µM. Besides, the results for the TGI in the assay on DU-145 prostate and with SR leukemia were > 100 µM and > 70.4 µM, respectively.

For `C=C1C(O)C2CCC(C)(C)C(=O)C2=C(CC(C)C)C12CC2` (stereo not drawn), the GI50 in the assay with MALME-3M melanoma was 35.6 µM; in the assay with NCI-H460 lung it was 32.8 µM; in the assay on UACC-257 melanoma it was 88 µM; in the assay with OVCAR-5 ovarian, > 100 µM; in the assay with SF-539 CNS, 70.7 µM; in the assay with DU-145 prostate, 84.9 µM. The GI50 with SR leukemia was 34 µM. Moreover, the TGI in the assay on MALME-3M melanoma, in the assay with NCI-H460 lung, with UACC-257 melanoma, in the assay with OVCAR-5 ovarian, in the assay with SF-539 CNS and in the assay on DU-145 prostate was > 100 µM throughout. Moreover, the TGI with SR leukemia was > 100 µM.

In the case of `CC(C)(C)OC(=O)n1cc(CNC(=S)Nc2ccccc2)c2ccccc21`, the GI50 was 9.36 µM in the assay on NCI-H460 lung; 10.9 µM in the assay on UACC-257 melanoma; 15.1 µM in the assay with A498 renal; 16.3 µM in the assay on OVCAR-5 ovarian; 11.6 µM in the assay on HL-60(TB) leukemia; 12.3 µM with SF-539 CNS. Further, the figures for the GI50 with DU-145 prostate and in the assay with SR leukemia were 7 µM and 5.07 µM, respectively. The TGI in the assay on NCI-H460 lung was 22 µM; with UACC-257 melanoma it was 30.5 µM; in the assay with A498 renal, 31.2 µM; in the assay on OVCAR-5 ovarian, 37.6 µM; in the assay on HL-60(TB) leukemia, 55.3 µM; in the assay on SF-539 CNS it was 25.4 µM. The TGI is 35.4 µM in the assay with DU-145 prostate and > 100 µM with SR leukemia.

As to `COC(=O)C(c1[nH]nc2ccccc12)C(C(=O)OC)c1[nH]nc2ccccc12` (stereo not drawn), the TGI is > 100 µM in the assay on MALME-3M melanoma; > 100 µM with NCI-H460 lung; > 100 µM with UACC-257 melanoma; > 100 µM with A498 renal; > 100 µM in the assay on OVCAR-5 ovarian; 50.5 µM with HL-60(TB) leukemia. Moreover, the figures for the TGI in the assay on SF-539 CNS and in the assay on SR leukemia were 44.9 µM and > 100 µM, respectively.
